Experiments:
[1] = tested on: CD4+ T cells; test: Vaccination with peptide (redox motif + epitope) adsorbed on aluminum hydroxide, SC: induction of cytolytic CD4+ T cells; assay type: in vivo, human
Source text: A vaccination strategy making use of a mixture of two peptides encompassing the minimal binding sequence of class II-restricted epitopes and a thioreductase motif is therefore established.
Administration of a mixture of these two peptides adsorbed on aluminum hydroxide elicits specific CD4+ T cells with cytolytic properties.
Patients in need for EPO injection are vaccinated by administration of peptide [SEQ ID NO:18] using a standard procedure of peptide adsorbed on aluminum hydroxide and administered by SC injection.
Patients affected by Fabry disease are immunized with peptide of SEQ ID NO:21, using a standard procedure of peptide adsorbed on aluminium hydroxide and administered by SC injection.
The mammalian expression vector pCMV with cytomegalovirus promotor is engineered to allow the expression in CHO (Chinese hamster ovary) cells of any protein for replacement therapy, in fusion with the promiscuous CLIP-derived epitope described in example 2 [SEQ ID NO:17]. Patients in need for injection with a protein for replacement therapy are first vaccinated by administration of a peptide comprising a thioreductase motif and the modified CLIP-derived epitope described in example 2 [SEQ ID NO:18].

[2] = tested on: CD4+ T cells; conditions: peptide adsorbed on aluminum hydroxide, SC injection; known from WO200817517; cited from earlier work
[3] = tested on: cytolytic CD4+ T cells; test: Administration of epitope-tagged therapeutic protein to a previously vaccinated / cell-treated individual: activation of cytolytic CD4+ T cells and immune response to the protein; assay type: in vivo, human; conditions: individual pretreated with the matching redox-motif peptide or with autologous cells activated by it
Source text: Recombinant alpha-galactosidase can be modified as to contain the sequence of a class II-restricted promiscuous T cell epitope added at the amino-terminal end of the molecule.
The promiscuous nature of the CLIP-modified epitope makes it possible to use the same vaccine and the same EPO molecule for any patient in need of such therapy, regardless of its HLA profile.

CPYC-LF-LKSDGRVKYTLN (CPYCLFLKSDGRVKYTLN; CxxC + redox motif apolipoprotein B-100 epitope) [SEQ ID NO:21]
elicitation of specific CD4+ T cells with cytolytic properties [1]: Epitope-specific cytolytic CD4+ T cells are then produced

CPYC-VR-FFMATRLLMQAL (CPYCVRFFMATRLLMQAL; CxxC redox motif + modified clip peptide) [SEQ ID NO:18]
elicitation of epitope-specific cytolytic CD4+ T cells [2]: elicit epitope-specific cytolytic CD4+ T cells

B1: modified alpha-galactosidase: recombinant alpha-galactosidase modified to contain the LFLKSDGRVKYTLN promiscuous epitope (protein)
chain: LFLKSDGRVKYTLNDNGLARTPTMGWLHWERFMCNLDCQEEPDSCISEKLFMEMAELMVSEGWKDAGYEYLCIDDCWMAPQRDSEGRLQADPQRFPHGIRQLANYVHSKGLKLGIYADVGNKTCAGFPGSFGYYDIDAQTFADWGVDLLKFDGCYCDSLENLADGYKHMSLALNRTGRSIVYSCEWPLYMWPFQKPNYTEIRQYCNHWRNFADIDDSWKSIKSILDWTSFNQERIVDVAGPGGWNDPDMLVIGNFGLSWNQQVTQMALWAIMAAPLFMSNDLRHISPQAKALLQDKDVIAINQDPLGKQGYQLRQGDNFEVWERPLSGLAWAVAMINRQEIGGPRSYTIAVASLGKGVACNPACFITQLLPVKRKLGFYEWTSRLRSHINPTGTVLLQLENTMQMSLKDLL
modifications: apolipoprotein B-100 epitope + alpha galactosidase
immune response towards the therapeutic protein [3]: does not elicit an immune response to alpha-galactosidase
